Measured values published in PMC7762498, “Demethoxycurcumin analogue DMC-BH exhibits potent anticancer effects on orthotopic glioblastomas” (Aging (Albany NY), 2020).

Legend:
[1] = test system: human glioblastoma U87-Luc cells; experiment: Orthotopic glioblastoma xenograft (BLI, immunohistochemistry); type: in vivo, mice; conditions: for tumor growth (BLI): U87-Luc orthotopic xenograft, nude mice, 20 mg/kg intraperitoneal; for percentage of TUNEL-positive cells / Ki67-positive rate: orthotopic xenograft tissue, 20 mg/kg; for percentage of TUNEL-positive cells: control 3.30% ± 0.26%; for Ki67-positive rate: untreated group 36.73% ± 4.82%
Protocol: We used orthotopic glioblastoma xenografts transplanted into mice by human glioblastoma U87-Luc cells to quantify the anti-tumor effect of DMC-BH and DMC. Tumor growth was recorded in vivo using Bioluminescent Imaging (BLI). […] The sizes of the tumors in the mice treated with DMC-BH were much smaller than those in the DMC-treated group or control group (P < 0.05) (Figure 4B). […] In addition, no significant body weight loss occurred in any of the three groups (P > 0.05) (Figure 4C).
Figure 4 The effects of DMC-BH and DMC on tumor growth in orthotopic glioblastoma xenograft models. (A) U87-Luc xenograft tumor-bearing nude mice were treated with 20 mg/kg DMC-BH, 20 mg/kg DMC or isometric saline for 18 days. The growth of orthotopic glioblastoma xenografts was monitored by BLI. (B) The sizes of orthotopic glioblastoma xenografts were measured using an IVIS spectrum image system. (C) The body weight of animals was measured after DMC-BH, DMC or isometric saline treatment.
Figure 5 The effects of DMC-BH and DMC on orthotopic glioblastoma growth were analyzed by immunohistochemical staining. (A) The orthotopic glioblastoma growth potential after treatment with 20 mg/kg DMC-BH or DMC treatment was evaluated by Ki67 immunohistochemistry. (B) The orthotopic glioblastoma apoptosis rate after treatment with 20 mg/kg DMC-BH or DMC was analyzed by TUNEL staining.
Thirty-six male nude mice weighing between approximately 18 g and 20 g and aged 6 to 8 weeks were divided into a control group, DMC group and DMC-BH group. The nude mice were handled under a laminar flow hood, and the feed, bedding, cage and contact instruments were all used after high pressure disinfection. The amplified U87-Luc cells were passaged in a 6 cm culture dish and placed in a 5% CO2 incubator. Ten percent chloral hydrate (40 μL/10 g) was used to anesthetize nude mice, and the nude mice were fixed on a stereotaxic apparatus when they were under deep anesthesia. We began to digest the U87-Luc cells once the mice were immobilized. The concentration of cells was 1 × 10^8/mL. Using a micro syringe, we slowly drew up 5 μL cells. Then 5 × 10^5 U87-Luc cells were injected into the caudate nucleus of the nude mice through an infusion of 1 μL/min. The orthotopic glioblastoma growth was quantified by BLI using an IVIS SPECTRUM 200 system (Perkin Elmer). Either DMC-BH or DMC was administered via intraperitoneal injection at a dose level of 20 mg/kg per injection. The drug administration started 10 days after intracranial implantation of U87-Luc cells, and in vivo imaging confirmed that the tumors were formed. The drug was administered continuously for 18 days. Control mice received an equivalent volume of physiologic solution each day. At day 18, all animals were sacrificed by CO2 inhalation.
Anesthetize mice with 2-3% isoflurane. Inject mice intraperitoneally with D-luciferin (150 μl of 15 mg/ml stock). Ten minutes after luciferin injection assess bioluminescent signal over an integration time of 10 and 60 s using a cooled charge-coupled device (CCD) camera (Spectrum; Caliper Life Sciences, Hopkinton, MA, USA). BLI was used to monitor tumor growth and response to therapy using the IVIS spectrum imaging system.
Following perfusion, the whole brain was immersed in 10% neutral paraformaldehyde buffer solution and fixed for 48 hours at room temperature. Routine dehydration and paraffin embedding were performed after fixation. Paraffin blocks were sliced to a thickness of 3 μm. We dewaxed tissue sections with xylene and rehydrated them through an ethanol gradient. The sections were then rinsed 2 times for 5 minutes with PBS. Incubate with 3% methanol solution of hydrogen peroxide for 20 minutes. Sections were then incubated in 5% goat serum for 10 minutes at room temperature. Serum was removed, and the sections were incubated with the first antibody at 4° C degree overnight. After PBS flushing, we added a secondary biotin-conjugated antibody. […]

primary glioma cells = experiment: MTT cell viability assay, primary glioma cells; type: cell-based; conditions: 72 h
Protocol: To investigate the cytotoxicity of DMC-BH on glioma cells (Figure 1A), we used an MTT assay to assess viability changes in SHG-44, C6, U251, U87, A172 and primary glioma cells treated with various concentrations of DMC-BH for 24, 48 or 72 hours (Figure 1B–1H). […] U251 and SHG-44 cells were more sensitive to DMC-BH. We then used the human glial cell line, HEB, to evaluate the toxicity of DMC-BH in normal cells. […] DMC-BH was not toxic to normal cells.
The human GBM U87-luc cell line was purchased from the Shanghai Sunbio Medical Biotechnology Co., Ltd. (Shanghai, China). Cells were cultured in DMEM supplemented with 10% fetal bovine serum (FBS) and maintained in an incubator at 37° C and 5% CO2. After cells were routinely passaged at 2- to 3-day intervals, animal experiments were carried out when the cells entered exponential growth phase. Rat C6, human SHG-44, U87, A172 and U251 glioma cells were obtained from the Shanghai Institute of Cell Biology, Chinese Academy of Sciences (Shanghai, China). Primary glioma cells were preserved by our laboratory from previous studies. […]
Glioblastoma cells were seeded into 96-well plates and exposed to vehicle (PBS) or different concentrations of DMC-BH for 24, 48 or 72 hours. Cell viability was measured using an MTT assay and was expressed as a ratio to the absorbance value of the control cells at 570 nm.

| Molecule | tumor growth (BLI) [1] | percentage of TUNEL-positive cells [1] | Ki67-positive rate [1] | IC50 (primary glioma cells; primary glioma cells sample 1, 72 hours) [µM] | IC50 (primary glioma cells; primary glioma cells sample 2, 72 hours) [µM] |
| --- | --- | --- | --- | --- | --- |
| COc1cc(C=CC(=O)CC(=O)C=Cc2ccc(O)c(CN3CCCC3)c2)ccc1O [DMC-BH, 1-[4-Hydroxy-3-(pyrrolidin-1-ylmethyl)phenyl]-7-(4-hydroxy-3-methoxyphenyl) hepta-1,6-diene-3,5-dione] | much greater tumor suppressive effects | 28.68% ± 5.15% | 6.38% ± 1.38% | 8.05 | 4.61 |
| Demethoxycurcumin [DMC, reference compound] | slight but significant tumor inhibitory effects | 3.33% ± 0.31% | 22.17% ± 5.10% |  |  |
